The record followed here is patent US20230011869A1 (Hoffmann-La Roche Inc., priority 2018, published 2023).

Counter-ions that a name gives are not always drawn. Like-named read-outs stand apart in the source and are kept apart here.

The test system of the test is Acinetobacter baumannii ATCC17978. The experiment in a line: Antimicrobial susceptibility testing: 90% growth inhibitory concentration (IC90) determination, Iso-Sensitest broth. Type of test: cell-based. Summed up: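 A. baumannii ATCC17978 grown in Iso-Sensitest broth across 10 compound concentrations at 35±2 °C.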
[1] abbreviates: Acinetobacter baumannii, ATCC17978, 16 h, read-out: ATCC17978 IC90, 90% growth inhibitory concentration, Acinetobacter baumannii ATCC17978, Iso-Sensitest broth, OD 600 nm over 16 h.
The mark [2] stands for this setting: 90% growth inhibitory concentration, Acinetobacter baumannii ATCC17978, Iso-Sensitest broth, OD 600 nm over 16 h, read-out: ATCC17978 IC90.

In the case of `Cc1cc(Nc2nccn3c(-c4ccc(OC(F)F)cc4)cnc23)ccc1C(=O)N1CCC2(COC2)C1` [Example 365, [4-[[3-[4-(difluoromethoxy)phenyl]imi-dazo[1,2-a]pyrazin-8-yl]amino]-2-methylphenyl]-(2-oxa-7-azaspiro[3.4]octan-7-yl)methanone], under setting [1], the IC90 was 0.55 µM.

For the molecule `Cc1cc(Nc2nccn3c(-c4ccc(OC(F)F)cc4)cnc23)ccc1C(=O)N1CCC(N2CCOCC2)CC1` [Example 366, [4-[[3-[4-(difluoromethxoy)phenyl]imi-dazo[1,2-a]pyrazin-8-yl]amino]-2-methylphenyl]-(4-morpholin-4-ylpiperidin-1-yl)methanone], the IC90 under setting [1] turned out to be 0.64 µM.

Turning to `CCN1CCN(C2CCN(C(=O)c3ccc(Nc4nccn5c(-c6ccc(OC(F)F)cc6)cnc45)cc3C)CC2)CC1` [Example 367, [4-[[3-[4-(difluoromethoxy)phenyl]imi-dazo[1,2-a]pyrazin-8-yl]amino]-2-methylphenyl]-[4-(4-ethylpiperazin-1-yl)piperidin-1-yl]methanone], the IC90 under setting [1] turned out to be 0.69 µM.

In the case of `Cc1cc(Nc2nccn3c(-c4ccc(OC(F)F)cc4)cnc23)ccc1C(=O)N1CCCC(N)C1` (stereo not drawn) [Example 368, (3-aminopiperidin-1-yl)-[4-[[3-[4-(difluoromethoxy)phenyl]imi-dazo[1,2-a]pyrazin-8-yl]amino]-2-methylphenyl]methanone; hy-drochloride], under setting [1], the IC90 worked out at 0.81 µM.

Consider `CCN(CC)C(=O)N1CCN(C(=O)c2ccc(Nc3nccn4c(-c5ccc(OC(F)F)cc5)cnc34)cc2C)CC1` [Example 369, 4-[4-[[3-[4-(difluoromethoxy)phenyl]imi-dazo[1,2-a]pyrazin-8-yl]amino]-2-methylbenzoyl]-N,N-diethylpiperazine-1-carboxamide], for which the IC90 under setting [1] amounted to 0.89 µM.

`Cc1cc(Nc2nccn3c(-c4ccc(OC(F)F)cc4)cnc23)ccc1C(=O)N1CCC2(CCOCC2)C1` [Example 370, [4-[[3-[4-(difluoromethoxy)phenyl]imi-dazo[1,2-a]pyrazin-8-yl]amino]-2-methylphenyl]-(8-oxa-2-azaspiro[4.5]decan-2-yl)methanone]: the IC90 under setting [1] was 1.1 µM.

In the case of `COc1ccc(-c2cnc3c(Nc4ccc(C(=O)N5CCN(CCO)CC5)c(C)c4)nccn23)cc1` [Example 371, [4-(2-hydroxyethyl)piperazin-1-yl]-[4-[[3-(4-methoxyphenyl)imidazo[1,2-a]pyrazin-8-yl]amino]-2-methylphenyl]methanone], the IC90 under setting [2] was 1.2 µM.

Consider `Cc1cc(Nc2nccn3c(-c4ccc(OC(F)F)cc4)cnc23)ccc1C(=O)N1CCN(CC(=O)N(C)C)CC1` [Example 372, 2-[4-[4-[[3-[4-(difluoromethoxy)phenyl]imi-dazo[1,2-a]pyrazin-8-yl]amino]-2-methylbenzoyl]piperazin-1-yl]-N,N-dimethylacetamide], for which the IC90 under setting [1] worked out at 1.2 µM.

For the molecule `CNC1CCN(C(=O)c2ccc(Nc3nccn4c(-c5ccc(OC(F)F)cc5)cnc34)cc2C)CC1` [Example 374, [4-[[3-[4-(difluoromethoxy)phenyl]imi-dazo[1,2-a]pyrazin-8-yl]amino]-2-methylphenyl]-[4-(methylamino)piperidin-1-yl]methanone; hydrochloride], the IC90 under setting [1] stood at 1.7 µM.

For `Cc1cc(Nc2nccn3c(-c4ccc(OC(F)F)cc4)cnc23)ccc1C(=O)N1CCC(C(N)=O)(N2CCN(C)CC2)CC1` [Example 375, 1-[4-[[3-[4-(difluoromethoxy)phenyl]imi-dazo[1,2-a]pyrazin-8-yl]amino]-2-methylbenzoyl]-4-(4-methylpiperazin-1-yl)piperidine-4-carboxamide], under setting [1], the IC90 was determined as 2 µM.

As to `Cc1cc(Nc2nccn3c(-c4ccc(OC(F)F)cc4)cnc23)ccc1C(=O)N1CCC2(CCCNC2)CC1` [Example 376, 2,9-diazaspiro[5.5]undecan-9-yl-[4-[[3-[4-(difluromethoxy)phenyl]imi-dazo[1,2-a]pyrazin-8-yl]amino]-2-methylphenyl]methanone; hy-drochloride], under setting [1], the IC90 was 2 µM.

For the molecule `Cc1cc(Nc2nccn3c(-c4ccc(OC(F)F)cc4)cnc23)ccc1C(=O)N1CCN(CC(=O)N2CCCC2)CC1` [Example 377, 2-[4-[4-[[3-[4-(difluoromethoxy)phenyl]imi-dazo[1,2-a]pyrazin-8-yl]amino]-2-methylbenzoyl]piperazin-1-yl]-1-pyrrolidin-1-ylethanone], the IC90 under setting [1] worked out at 2.3 µM.

As for `Cc1cc(Nc2nccn3c(-c4ccc(OC(F)F)cc4)cnc23)ccc1C(=O)N1CCOCC1CN` (stereo not drawn) [Example 378, [3-(aminomethyl)morpholin-4-yl]-[4-[[3-[4-(difluoromethoxy)phenyl]imi-dazo[1,2-a]pyrazin-8-yl]amino]-2-methylphenyl]methanone; hy-drochloride], the IC90 under setting [1] was 2.5 µM.

Take `Cc1cc(Nc2nccn3c(-c4ccc(OC(F)F)cc4)cnc23)ccc1C(=O)N1CCOC2(CCNCC2)C1` [Example 379, [4-[[3-[4-(difluoromethoxy)phenyl]imi-dazo[1,2-a]pyrazin-8-yl]amino]-2-methylphenyl]-(1-oxa-4,9-diazaspiro[5.5]undecan-4-yl)methanone; hydrochloride]: the IC90 under setting [1] was 2.8 µM.

`Cc1cnn(CC2CCN(C(=O)c3ccc(Nc4nccn5c(-c6ccc(OC(F)F)cc6)cnc45)cc3C)CC2)c1` [Example 380, [4-[[3-[4-(difluoromethoxy)phenyl]imi-dazo[1,2-a]pyrazin-8-yl]amino]-2-methylphenyl]-[4-[(4-methylpyrazol-1-yl)methyl]piperidin-1-yl]methanone]: under setting [1], the IC90 turned out to be 2.8 µM.

Consider `Cc1cc(Nc2nccn3c(-c4ccc(OC(F)F)cc4)cnc23)ccc1C(=O)N1CCC2(CCNCC2)C1` [Example 381, 2,8-diazaspiro[4.5]decan-2-yl-[4-[[3-[4-(difluoromethoxy)phenyl]imi-dazo[1,2-a]pyrazin-8-yl]amino]-2-methylphenyl]methanone; hy-drochloride], for which, under setting [1], the IC90 was found to be 2.9 µM.

Take `Cc1cc(Nc2nccn3c(-c4ccc(OC(F)F)cc4)cnc23)ccc1C(=O)N1CCC(CC(=O)O)CC1` [Example 382, 2-[1-[4-[[3-[4-(difluoromethoxy)phenyl]imi-dazo[1,2-a]pyrazin-8-yl]amino]-2-methylbenzoyl]piperidin-4-yl]acetic acid]: the IC90 under setting [1] worked out at 3.6 µM.

In the case of `COc1ccc(-c2cnc3c(Nc4ccc(C(=O)N5CCCN(C)CC5)c(C)c4)nccn23)cc1` [Example 383, [4-[[3-(4-methoxyphenyl)imidazo[1,2-a]pyrazin-8-yl]amino]-2-methylphenyl]-(4-methyl-1,4-diazepan-1-yl)methanone], the IC90 under setting [2] turned out to be 4.3 µM.

As to `COc1ccc(-c2cnc3c(Nc4ccc(C(=O)N5CCC(N(C)C)C5)c(C)c4)nccn23)cc1` (stereo not drawn) [Example 384, [3-(dimethylamino)pyrrolidin-1-yl]-[4-[[3-(4-methoxyphenyl)imidazo[1,2-a]pyrazin-8-yl]amino]-2-methylphenyl]methanone], under setting [2], the IC90 turned out to be 5.2 µM.

For the molecule `CN1CCN(C(=O)c2ccc(Nc3nccn4c(-c5ccc(OC(F)F)cc5)cnc34)cc2C(F)(F)F)CC1` [Example 385, [4-[[3-[4-(difluoromethoxy)phenyl]imi-dazo[1,2-a]pyrazin-8-yl]amino]-2-(trifluoromethyl)phenyl]-(4-methylpiperazin-1-yl)methanone], the IC90 under setting [1] came out at 7.4 µM.

As for `CCc1cc(Nc2nccn3c(-c4ccc(OC)c(F)c4)cnc23)ccc1C(=O)N1CCC(CN)CC1` [Example 386, [4-(aminomethyl)piperidin-1-yl]-[2-ethyl-4-[[3-(3-fluoro-4-methoxyphenyl)imidazo[1,2-a]pyrazin-8-yl]amino]phenyl]methanone; formic acid], the IC90 under setting [1] is 0.18 µM.

With `Cc1cc(Nc2nccn3c(-c4ccc(OCC#CCO)c(F)c4)cnc23)ccc1C(=O)N1CCC(CN)CC1` [Example 387, [4-(aminomethyl)piperidin-1-yl]-[4-[[3-[3-fluoro-4-(4-hydroxybut-2-ynoxy)phenyl]imidazo[1,2-a]pyrazin-8-yl]amino]-2-methylphenyl]methanone; for-mic acid], the IC90 under setting [2] was 0.24 µM.

Take `COc1ccc(-c2cnc3c(Nc4ccc(C(=O)N5CCC(C(=O)NC(CO)(CO)CO)CC5)c(C)c4)nccn23)cc1F` [Example 388, N-[1,3-dihydroxy-2-(hydroxymethyl)propan-2-yl]-1-[4-[[3-(3-fluoro-4-methoxyphenyl)imidazo[1,2-a]pyrazin-8-yl]amino]-2-methylbenzoyl]piperidine-4-carboxamide]: the IC90 under setting [2] is 0.26 µM.

In the case of `COc1ccc(-c2cnc3c(Nc4ccc(C(=O)N5CCN(S(N)(=O)=O)CC5)c(C)c4)nccn23)cc1F` [Example 389, 4-[4-[[3-(3-fluoro-4-methoxyphenyl)imidazo[1,2-a]pyrazin-8-yl]amino]-2-methylbenzoyl]piperazine-1-sulfonamide], the IC90 under setting [2] was 0.31 µM.

For the molecule `COc1ccc(-c2cnc3c(Nc4ccc(C(=O)N5CCC(N6CCCC(CO)C6)CC5)c(C)c4)nccn23)cc1F` (stereo not drawn) [Example 390, [4-[[3-(3-fluoro-4-methoxyphenyl)imidazo[1,2-a]pyrazin-8-yl]amino]-2-methylphenyl]-[4-[3-(hydroxymethyl)piperidin-1-1-yl)piperidin-1-yl]methanone], under setting [2], the IC90 was found to be 0.32 µM.

In the case of `CNCCN(C)C(=O)C1CCN(C(=O)c2ccc(Nc3nccn4c(-c5ccc(OC)c(F)c5)cnc34)cc2C)CC1` [Example 391, 1-[4-[[3-(3-fluoro-4-methoxyphenyl)imidazo[1,2-a]pyrazin-8-yl]amino]-2-methylbenzoyl]-N-methyl-N-[2-(methylamino)ethyl]piperidine-4-carboxamide; hydrochloride], the IC90 under setting [1] was 0.34 µM.

As for `COc1ccc(-c2cnc3c(Nc4ccc(C(=O)N5CCC(C(=O)N6CC[C@@H](N)[C@@H](O)C6)CC5)c(C)c4)nccn23)cc1F` [Example 392, [4-[(3S,4R)-4-amino-3-hydroxypiperidine-1-carbonyl]piperidin-1-yl]-[4-[[3-(3-fluoro-4-methoxyphenyl)imidazo[1,2-a]pyrazin-8-yl]amino]-2-methylphenyl]methanone; 2,2,2-trifluoroacetic acid], the IC90 under setting [1] was found to be 0.34 µM.
